The test system of series [1] is RAW264.7. The series is described as follows: Antiinflammatory activity against mouse RAW264.7 cells assessed as inhibition of LPS-induced NO production at 10 uM preincubated for 1 hrs followed by LPS stimulation and measured after 24 hrs by Griess assay relative to control. In kind it is functional. The note with it: time 25 hrs. (The Griess reaction detects nitrite, a stable product of nitric oxide.)

The subject of series [2] is RAW264.7. The series is described as follows: Cytotoxicity against mouse RAW264.7 cells at 20 uM measured after 24 hrs. In kind it is cell-based. The note with it: raw264.7, 24 h.
The test system of a further series is L02. The series is described as follows: Antiinflammatory activity against human L02 assessed as inhibition of LPS-induced NO production preincubated for 1 hrs followed by LPS stimulation and measured after 24 hrs by Griess assay relative to control. The class given is functional, cell-based.

In general, inhibition refers to the relative decrease from the control value, in per cent. By IC50 is commonly meant the concentration at which inhibition is half-maximal. Consider `C(=C\c1nc(N2CCOCC2)c2sccc2n1)/c1ccccc1`, for which the inhibition at 10 µM in the series with RAW264.7 [1] is 34.1%. In the series on RAW264.7 [2], the Activity result is “Non-Toxic”. In the series with L02, the half-maximal inhibitory concentration (IC50) is over 1000 µM.
In the case of `CNc1nc(/C=C/c2cc(OC)c(OC)c(OC)c2)nc2ccsc12`, in the series on RAW264.7 [1], the inhibition at 10 µM is 39.5%. In the series with RAW264.7 [2], the Activity result is “Non-Toxic”. The IC50 in the series on L02 was over 1000 µM.
In the case of `CC(C)CNc1nc(/C=C/c2ccccc2)nc2ccsc12`, the inhibition at 10 µM with RAW264.7 [1] is 25%. Further, the Activity result with RAW264.7 [2] is “Non-Toxic”. Further, the concentration for half-maximal inhibition (IC50) in the series with L02 was over 1000 µM.
For `COc1cc(/C=C/c2nc(Cl)cc(NCCc3ccc(F)cc3)n2)cc(OC)c1OC` the same measures were 55.9%, “Non-Toxic” and under 40 µM.
For `CCCc1nn(C)c2c(NC(C)C)nc(/C=C/c3nc(C)c(C)nc3C)nc12` the same measures were 54.8%, “Non-Toxic” and 342 µM.
The corresponding values for `C(=C\c1ccco1)/c1nc(NCc2ccccc2)c2sccc2n1` are 64.1%, “Non-Toxic” and over 1000 µM.
With `Fc1ccc(CCNc2nc(/C=C/c3ccccc3)nc3ccsc23)cc1`, in the series on RAW264.7 [1], the inhibition at 10 µM amounted to 29.8%. The Activity result in the series with RAW264.7 [2] was “Non-Toxic”. Also, in the series on L02, the IC50 was over 1000 µM.
The corresponding values for `Fc1ccc(CNc2nc(/C=C/c3ccco3)nc3ccsc23)cc1` are 59.2%, “Non-Toxic” and over 1000 µM.
For `CCCc1nn(C)c2c(N3CCOCC3)nc(/C=C/c3cccnc3)nc12` the same measures were 69.9%, “Non-Toxic” and 535 µM.
The corresponding values for `COc1cc(/C=C/c2nc(O)nc(NCCc3ccc(F)cc3)n2)cc(OC)c1OC` are 36.5%, “Non-Toxic” and 483 µM.
In the case of `CCCc1nn(C)c2c(NCc3ccc(F)cc3)nc(/C=C/c3nc(C)c(C)nc3C)nc12`, the inhibition at 10 µM with RAW264.7 [1] turned out to be 63.4%. Further, the Activity entry in the series with RAW264.7 [2] is “Non-Toxic”. Further, the IC50 in the series with L02 is over 1000 µM.
With `COc1cc(/C=C/c2nc(Nc3ccc(C(C)C)cc3)c3sccc3n2)cc(OC)c1OC`, in the series with RAW264.7 [1], the inhibition at 10 µM came out at 13.3%. Moreover, in the series on RAW264.7 [2], the Activity result is on record as “Non-Toxic”. Also, the IC50 with L02 was 370 µM.
The corresponding values for `CCCCNc1nc(/C=C/c2ccccc2)nc2ccsc12` are 22.4%, “Non-Toxic” and over 1000 µM.
The corresponding values for `CCCc1nn(C)c2c(N3CCOCC3)nc(CCc3cccnc3)nc12` are 27.1%, “Non-Toxic” and 859 µM.
The corresponding values for `CCCc1nn(C)c2c(NC3CC3)nc(/C=C/c3cccnc3)nc12` are 49.5%, “Non-Toxic” and 261 µM.
Take `CCCc1nn(C)c2c(NCc3ccc(F)cc3)nc(/C=C/c3cccnc3)nc12`: the inhibition at 10 µM with RAW264.7 [1] worked out at 61.3%. The Activity result in the series on RAW264.7 [2] is listed as “Non-Toxic”. Further, the half-maximal inhibitory concentration (IC50) in the series on L02 worked out at 940 µM.
With `COc1cc(/C=C/c2nc(NCc3ccco3)c3sccc3n2)cc(OC)c1OC`, the inhibition at 10 µM in the series on RAW264.7 [1] was determined as 46.5%. The Activity entry with RAW264.7 [2] is reported as “Non-Toxic”. In the series with L02, the IC50 is 189 µM.
The corresponding values for `Fc1ccccc1CNc1nc(/C=C/c2ccco2)nc2ccsc12` are 11.7%, “Non-Toxic” and over 1000 µM.
The corresponding values for `CCCc1nn(C)c2c(NCCc3cccc(Cl)c3)nc(/C=C/c3nc(C)c(C)nc3C)nc12` are 68.8%, “Non-Toxic” and 786 µM.
For `COc1ccc(Nc2nc(/C=C/c3ccccc3)nc3ccsc23)cc1` the same measures were 21.9%, “Non-Toxic” and over 1000 µM.
On to `CCCc1nn(C)c2c(NC(C)C)nc(/C=C/c3cccnc3)nc12`, for which, in the series with RAW264.7 [1], the inhibition at 10 µM was 74.2%. Moreover, in the series with RAW264.7 [2], the Activity result is on record as “Non-Toxic”. Further, the IC50 in the series on L02 is 574 µM.
The corresponding values for `Clc1ccccc1CNc1nc(/C=C/c2ccccc2)nc2ccsc12` are 35.2%, “Non-Toxic” and over 1000 µM.
With `CCCc1nn(C)c2c(N3CCS(=O)(=O)CC3)nc(CCc3cccnc3)nc12`, in the series with RAW264.7 [1], the inhibition at 10 µM was 15.6%. For the same compound, in the series with RAW264.7 [2], the Activity entry is reported as “Non-Toxic”. Also, the half-inhibitory concentration (IC50) in the series on L02 was over 1000 µM.
The corresponding values for `CNc1nc(/C=C/c2ccccc2)nc2ccsc12` are 21.9%, “Non-Toxic” and over 1000 µM.
The corresponding values for `CCCc1nn(C)c2c(NC3CC3)nc(/C=C/c3nc(C)c(C)nc3C)nc12` are 48.4%, “Non-Toxic” and 706 µM.
For `Fc1ccc(CNc2nc(/C=C/c3ccccc3)nc3ccsc23)cc1` the same measures were 23.4%, “Non-Toxic” and over 1000 µM.
For `Brc1ccc(CNc2nc(/C=C/c3ccccc3)nc3ccsc23)cc1`, in the series with RAW264.7 [1], the inhibition at 10 µM was found to be 19.5%. In addition, in the series with RAW264.7 [2], the Activity result is on record as “Non-Toxic”. Moreover, the half-maximal inhibitory concentration (IC50) in the series on L02 is over 1000 µM.
Consider `CCCc1nn(C)c2c(NC(C)C)nc(/C=C/c3ccc[n+]([O-])c3)nc12`, for which the inhibition at 10 µM with RAW264.7 [1] was determined as 45.8%. In addition, the Activity entry in the series on RAW264.7 [2] is recorded as “Non-Toxic”. The IC50 with L02 is 324 µM.
The corresponding values for `CCCc1nn(C)c2c(N3CCOCC3)nc(/C=C/c3ccc[n+]([O-])c3)nc12` are 20.8%, “Non-Toxic” and 817 µM.
The corresponding values for `CCCc1nn(C)c2c(NCCc3cccc(Cl)c3)nc(/C=C/c3cccnc3)nc12` are 66.7%, “Non-Toxic” and over 1000 µM.
Regarding `CCCc1nn(C)c2c(N3CCS(=O)(=O)CC3)nc(/C=C/c3nc(C)c(C)nc3C)nc12`, the inhibition at 10 µM in the series on RAW264.7 [1] is 51.6%. For the same compound, in the series with RAW264.7 [2], the Activity result was “Non-Toxic”. The IC50 with L02 was under 40 µM.
For `CCCc1nn(C)c2c(NCCc3cccc(Cl)c3)nc(CCc3cccnc3)nc12` the same measures were 37.5%, “Non-Toxic” and 612 µM.
For `Brc1ccc(Nc2nc(/C=C/c3ccccc3)nc3ccsc23)cc1` the same measures were 19.5%, “Non-Toxic” and over 1000 µM.
The corresponding values for `COc1cc(/C=C/c2nc(N3CCN(C)CC3)c3sccc3n2)cc(OC)c1OC` are 39.3%, “Non-Toxic” and over 1000 µM.
With `COc1cc(/C=C/c2nc(Cl)cc(NCCc3ccccc3)n2)cc(OC)c1OC`, the inhibition at 10 µM in the series with RAW264.7 [1] was found to be 31.2%. The Activity result with RAW264.7 [2] is recorded as “Non-Toxic”. In the series with L02, the IC50 was under 40 µM.
On to `COc1cc(/C=C/c2nc(NCCc3ccccc3)c3sccc3n2)cc(OC)c1OC`, for which the inhibition at 10 µM with RAW264.7 [1] stood at 46.2%. Further, the Activity entry in the series on RAW264.7 [2] is “Non-Toxic”. The half-inhibitory concentration (IC50) in the series with L02 was under 40 µM.
For `COc1cc(/C=C/c2nc(N(C)C)c3sccc3n2)cc(OC)c1OC` the same measures were 27.2%, “Non-Toxic” and over 1000 µM.
As to `Fc1ccccc1CCNc1nc(/C=C/c2ccccc2)nc2ccsc12`, in the series with RAW264.7 [1], the inhibition at 10 µM was determined as 29.8%. Further, in the series with RAW264.7 [2], the Activity entry is “Non-Toxic”. In addition, the half-maximal inhibitory concentration (IC50) in the series with L02 is over 1000 µM.
For `CN1CCN(c2nc(/C=C/c3ccccc3)nc3ccsc23)CC1` the same measures were 18.5%, “Non-Toxic” and 198 µM.
For `Clc1ccc(CNc2nc(/C=C/c3ccco3)nc3ccsc23)cc1` the same measures were 13%, “Non-Toxic” and over 1000 µM.
For `COc1cc(/C=C/c2nc(O)nc(NCCc3ccccc3)n2)cc(OC)c1OC` the same measures were 57%, “Non-Toxic” and under 40 µM.
In the case of `CNc1nc(/C=C/c2ccco2)nc2ccsc12`, the inhibition at 10 µM in the series with RAW264.7 [1] was 29.1%. Moreover, in the series on RAW264.7 [2], the Activity entry is recorded as “Non-Toxic”. Moreover, in the series on L02, the half-maximal inhibitory concentration (IC50) worked out at 811 µM.
The corresponding values for `COc1cc(/C=C/c2nc(Cl)cc(NC(C)C)n2)cc(OC)c1OC` are 29%, “Non-Toxic” and under 40 µM.
On to `Brc1cccc(Nc2nc(/C=C/c3ccccc3)nc3ccsc23)c1`, for which the inhibition at 10 µM with RAW264.7 [1] amounted to 28.8%. For the same compound, the Activity result in the series on RAW264.7 [2] is on record as “Non-Toxic”. Also, the IC50 with L02 was over 1000 µM.
For `COc1cc(/C=C/c2nc(N(C)c3ccccc3)c3sccc3n2)cc(OC)c1OC` the same measures were 32.5%, “Non-Toxic” and 767 µM.
Regarding `CN(c1ccccc1)c1nc(/C=C/c2ccccc2)nc2ccsc12`, the inhibition at 10 µM with RAW264.7 [1] came out at 24.9%. The Activity result in the series with RAW264.7 [2] is on record as “Non-Toxic”. Moreover, the IC50 in the series on L02 is over 1000 µM.
The corresponding values for `CCCc1nn(C)c2c(NCCc3ccccc3)nc(/C=C/c3cccnc3)nc12` are 77.4%, “Non-Toxic” and over 1000 µM.
The corresponding values for `CCCc1nn(C)c2c(NCCc3ccccc3)nc(CCc3cccnc3)nc12` are 36.5%, “Non-Toxic” and 783 µM.
The corresponding values for `COc1cc(/C=C/c2nc(NCCc3ccc(F)cc3)c3sccc3n2)cc(OC)c1OC` are 26.9%, “Non-Toxic” and under 40 µM.
For the compound `COc1cc(/C=C/c2nc(OCc3ccccc3)c3sccc3n2)cc(OC)c1OC`, the inhibition at 10 µM in the series on RAW264.7 [1] worked out at 33.8%. In addition, in the series on RAW264.7 [2], the Activity result was “Non-Toxic”. In addition, in the series on L02, the half-maximal inhibitory concentration (IC50) was over 1000 µM.
For `CCCc1nn(C)c2c(NCc3ccc(F)cc3)nc(CCc3cccnc3)nc12` the same measures were 18.8%, “Non-Toxic” and under 40 µM.

(Values after ChEMBL document CHEMBL4813945, “Discovery and development of novel pyrimidine and pyrazolo/thieno-fused pyrimidine derivatives as potent and orally active inducible nitric oxide synthase dimerization inhibitor with efficacy for arthritis” (Eur J Med Chem, 2021).)
